Measured values: a melting point compilation (Tetko et al.; mined from patent text by program, amines drawn as free bases though some values may be those of a salt)

Compound	melting point
CCCCCCOC(=O)c1nc2cc(Cl)ccc2o1	42 to 43 °C
CCCc1c(CSc2nnc(SCc3ccc(OCC(=O)O)cc3)s2)ccc(C(C)=O)c1O	131 to 134 °C
Cn1c(-c2c(Cl)cccc2Cl)nc2cc(C(=O)O)ccc21	> 250 °C
COc1ccc(C2=CCC(=O)CC2)c2c1OCCO2	56 to 59 °C
CCOC(=O)c1cc2c3cc4ccccc4cc3ccc2n1C	141 to 144 °C
FC(F)=C(F)CCCCSc1nnc(-c2ccc(C(F)(F)F)cc2)o1	40 °C
CC(C)(C)OC(=O)CN(Cc1ccccc1)S(=O)(=O)c1ccc2c(Cl)cnc(Cl)c2c1	134 to 136 °C
OCc1cnc2sc3c(n12)CCCCC3	145 to 146 °C
COc1cc2c(cc1-c1ncco1)-c1c(-c3cncs3)c3c(n1CC2)C(=O)N(C(C)(C)C)CCCC3	205 to 207 °C
CCOCCC(=O)C1CCC2C3CCC4CC(O)CCC4(C)C3C(=O)CC12C (configuration not stated)	126 to 130 °C
CSc1ccc(-c2coc3ncc(-c4nnc(C)o4)cc23)cc1	209 to 210 °C
COc1ccc2cc3c(cc2c1)C(=O)NC3=O	> 250 °C
Cc1cccc(C)c1N1C(=N)C(C)N(c2c(C)cccc2C)C1C(=O)OCc1ccc(Cl)cc1 (configuration not stated)	140 to 142 °C
CCOC(=O)c1cn2c(cc(OC(C)C)c3ccccc32)n1	127 to 129 °C
CCOC(=O)c1cnn2c1c(N1CCN(c3ccccc3)CC1)nc1ccccc12	134 to 135 °C
Cc1nn(C)c(C)c1-c1cncc(OC2SCC(O)C(O)C2O)c1 (configuration not stated)	174 °C
C=CCN(C(=O)C(C#N)=CNC(=N)N1CC(C)(C)NC1=O)c1cccc(C(F)(F)F)c1	184 to 185 °C
CCN(CC)CCNc1ccc(NCCN(CC)CC)c2c1C(=O)c1c(O)ccc(O)c1C2=O	202 to 204 °C
CC(=O)C1CCC2C3CCC4CC(F)CCC4(C)C3CCC12C (configuration not stated)	154 to 155 °C
O=C1C2=C(SCCO2)C(=O)N1c1ccc2cccnc2n1	200 °C
CC(=NOCCOc1ccc(CC2OC(=O)N(C(c3ccccc3)(c3ccccc3)c3ccccc3)C2=O)cc1)c1ccc(-c2ccccc2)cc1 (configuration not stated)	193 to 195 °C
COC(=O)c1cc(-c2nc(CCl)c(C)o2)ccc1OS(C)(=O)=O	160 to 161 °C
CCC1(C)CN(c2c(F)c(N)c3c(=O)c(C(=O)O)cn(C4CC4)c3c2OC)CCC1NC (configuration not stated)	164 to 166 °C
COc1ccc2nc(COc3cccc(OCc4cccc(C)c4C(=O)O)c3)ccc2c1	176 to 179 °C
Cc1n[nH]c(CC(=O)O)c1Oc1cc(Cl)cc(Cl)c1	156 to 158 °C
Cc1c(C2CCN(Cc3ccccc3)CC2)n[nH]c1-c1ccc(Cl)cc1	188 to 190 °C

Compound	melting point
O=C1C=C2CCCCC2N1c1ccc(O)cc1 (configuration not stated)	210 °C
O=C(O)Cc1ccc(C(=O)c2ccc(Cl)cc2)[nH]1	210 °C
CCCCC(=NCC(=O)OCC)c1cc(Cl)ccc1N	96 to 97 °C
CC1Oc2ccc(CCl)cc2NC1=O (configuration not stated)	162 to 169 °C
COc1ccc2[nH]cc([C@H]3CC[C@@H](N4CCN(c5cccc6[nH]ccc56)CC4)CC3)c2c1	105 to 108 °C
CCN(C)c1nc2cc(NC(=O)c3c(C(=O)N4CCC4)cnn3C)ccn2n1	229 to 232 °C
COC(=O)N1Cc2cc(OC)ccc2C(Cc2c(Cl)cncc2Cl)=N1	184 to 186 °C
CCc1cc(C=C(C#N)C#N)ccc1N=C1SCC2(CCCC2)N1C1CCCC1	135 to 136 °C
CC(C)(C)[Si](C)(C)O[C@H]1CCNC1=O	48 to 49 °C
CC1CCC2(C)C(=CCC3C4CC(C)C(=O)C4(C)CCC32)C1 (configuration not stated)	109 to 110 °C
CCNC(=S)c1ccc2c(c1)Nc1ccccc1S2	155 to 156 °C
O=C(COc1ccc2c(-c3ccccc3F)noc2c1Br)NO	165 to 167 °C
CCOC(=O)C(=CN(C)C)C(=O)c1cc2cc(F)c(F)cc2nc1Cl	140 °C
COc1ccc2c(C(=O)O)cccc2c1	180 °C
CNC(=O)ON=C1SC(C)C(=O)NC1(C)C (configuration not stated)	190 to 191 °C
CC(C)NC(=O)[C@H](C)C[C@H](O)[C@H](CC1CCCCC1)NC(=O)[C@H](Cc1cscn1)NC(=O)OC(C)(C)C	185 to 187 °C
Cc1sc(-c2ccc(C(F)(F)F)cc2)nc1O	232 to 233 °C
CN(C)CC(C(O)c1ccc(N)cc1)N1CCC(Cc2ccccc2)CC1 (configuration not stated)	121 to 125 °C
COc1cccc(C2(c3cccc(OC)c3)CC2C=CC(=O)NC(C)CCCc2ccncc2)c1 (single isomer, unassigned)	104 to 106 °C
NS(=O)(=O)c1ccccc1C(=O)c1cccs1	122 to 125 °C
CCOC(=O)c1cnc2nn(CC)cc2c1O	197 to 198 °C
O=c1cc(C(F)(F)F)n(-c2c([N+](=O)[O-])cc([N+](=O)[O-])cc2C(F)(F)F)c(=O)[nH]1	219 to 220 °C
Cc1ccc(-c2ccccc2C(=O)NN)cc1	98 to 99 °C
CC(C)OC(=O)n1cc(F)c(N)nc1=O	217 to 219 °C
COc1cc(N)c(Cl)cc1C(=O)NCC1CCN(CCCCCNC(=O)Nc2ccc(Cl)cc2)CC1	204 to 206 °C
CNC(Cc1cc(Br)ccc1N)c1ccsc1C (configuration not stated)	72.5 to 74 °C

Compound	melting point
CCN(Cc1ccc2nc(C)[nH]c(=O)c2c1)c1ccc(C(=O)NCc2nccn2Cc2ccccc2)cc1	217 to 221 °C
CCCCCCCCCCOC(=O)CN(CP(=O)(ONC1CCCCC1)ONC1CCCCC1)C(=O)C(F)(F)F	79.5 to 82.5 °C
O=C(O)Cc1cccc2c(=O)cc(-c3cc(F)ccc3F)oc12	222 to 224 °C
C=C1C=CC=C1Cc1ccc(O)cc1	143 to 144 °C
NC(=S)NN=C(CNC(=O)c1ccccc1)c1ccccc1	171 to 172 °C
CCOC(=O)C=CN1C(C)(C)CC(N(C=O)CCCCCCN(C=O)C2CC(C)(C)N(C=CC(=O)OCC)C(C)(C)C2)CC1(C)C	172 °C
C=COC(=O)N1CC2C(=O)C=CC(c3ccccc3)(c3ccccc3)C2C1 (configuration not stated)	162 °C
COC(=O)C(Cc1ccc(OS(=O)(=O)C(F)(F)F)c(OS(=O)(=O)C(F)(F)F)c1)NC(=O)OC(C)(C)C (configuration not stated)	80 to 82 °C
CNC(=S)Nc1ccc(C)cn1	161 °C
CCn1ncc2c1ncc1c(N3CCOCC3)nc3cc(C)nn3c12	179 to 180 °C
CC(C)c1cccc(C(C)C)c1NC(=O)CN1CCN(CCSc2nc3cccc(CO)c3o2)CC1	138 to 139 °C
Cc1nn(-c2ccccn2)c2c1c(=O)c1ccccc1n2C	192 to 193 °C
CN1CCN2c3ccc(Cl)cc3C(c3ccco3)=[N+]([O-])CC2C1 (configuration not stated)	202 to 204 °C
OCc1coc(/C=C/c2ccccc2)n1	94 to 95 °C
CCCn1cc(C(=O)O)c(=O)c2cc(C)sc21	207 to 208 °C
CC(C#N)(c1ccc(Cl)c(C(F)(F)F)c1)c1ccc([N+](=O)[O-])cc1Cl (configuration not stated)	162 °C
CCCCCCOc1ccc2c(c1CCC)OC(CCC(=O)O)(CCC(=O)O)CC2=O	164 to 165 °C
COc1c(C#Cc2ccc(NS(C)(=O)=O)cc2C)cc(N2CCC(=O)NC2=O)cc1C(C)(C)C	> 280 °C
O=C(O)c1cc(-c2ccncc2)c[nH]c1=O	> 300 °C
O=C(O)c1cc(=O)cc(-c2ccccc2Cl)o1	241 to 246 °C
O=Cc1c(O)cccc1OCc1ccccc1C(=O)O	218 to 220 °C
Nc1ccc(F)c(-c2ccncc2)c1F	190 to 192 °C
O=C(NCc1noc(-c2ccc(CN3CCCCCC3)s2)n1)c1ccccc1	79 to 81 °C
COC(=NS(=O)(=O)c1nc(-c2ccccc2)ns1)C(C)C	123 to 124 °C
ON=c1cc(-c2cc3cccn3cn2)oc2ccc(OCCOc3ccncc3)cc12	198 to 200 °C
CC(=O)NC(=O)C(SC(C)=O)c1ccccc1 (configuration not stated)	96 °C

Compound	melting point
Clc1cccc(-c2cn3c(n2)sc2ccccc23)c1	173 to 175 °C
CCCCc1nc2sccc2n1Cc1ccc(-c2ccccc2C(=O)O)cc1	203 °C
Nc1c(Cl)cc(C(O)CNCCCCCCOCCCCCCc2cnccn2)cc1Cl (configuration not stated)	60 to 63 °C
COC(=O)C(C#N)=Cc1cc(OC)c(OC)cc1[N+](=O)[O-]	162 to 164 °C
Cn1c(COc2ccc(C=C3SC(=O)NC3=O)cc2)nc2ccc(Sc3cc(C(C)(C)C)c(O)c(C(C)(C)C)c3)cc21	247 to 249 °C
CSC1=Nc2ccccc2N(C)c2cscc21	113 to 115 °C
CCCCCCN(CCCCCC)c1c(N[C@@H](Cc2cn(Cc3ccccc3)cn2)C(=O)O)c(=O)c1=O	75 to 80 °C
Cc1c(C)c2c(c(Br)c1N)C(c1ccc(C(C)C)cc1)CO2 (configuration not stated)	191 to 193 °C
NC(=O)c1nn(-c2ccccc2)c2ccccc12	149 °C
CNc1cc(Cl)cc(C)n1	69 to 70 °C
CCC(C(=O)Nc1ccc2cc[nH]c2c1)c1ccccc1 (configuration not stated)	143 to 144 °C
CCOC(=O)c1c(C(C)C)nc2c(c(C)nn2C)c1-c1ccc(F)cc1	68 to 71 °C
CCOc1cc(Cc2cnc(N)nc2N)cc2c1OC(C)(C)C=C2CC(C)C	188 °C
CC(=O)Nc1nnc2c3c(c(N4CCOCC4)nn12)CCCC3	147 to 149 °C
COCCn1c(S(C)=O)nc(-c2ccc(F)cc2)c1-c1ccnc(Nc2ccccc2)c1 (configuration not stated)	83 to 85 °C
C=CCOc1ccc(-c2ccc(C(=O)OC)cc2)cc1	149 °C
CCOC(=O)CCCCOc1ccc([N+](=O)[O-])c(C=C2C(=O)NC(=O)N2C)c1	121 to 123 °C
CONC(=O)c1ccccc1NC(=O)Cc1cccc(Br)c1	166 °C
CC(C)(C)C1=CC(C=O)(C(C)(C)C)NN1 (configuration not stated)	216 to 219 °C
Cc1oc(-c2ccccc2)nc1CCOc1ccc(CC(C(=O)O)C(=O)N(C)C)cc1 (configuration not stated)	48.5 to 49.7 °C
c1ccc(C2c3ccccc3-c3ncncc32)cc1 (configuration not stated)	148 to 150 °C
OC(c1cncs1)(c1cncs1)C(F)(F)F	109 to 110 °C
c1cncc(Nn2ccc3ccccc32)c1	127 to 128 °C
Cc1ccc(-c2ssc(=S)c2C)nn1	168 °C
